Laboratory results: patent publication US20040142888A1, “Modulators of RabGGT and methods of use thereof” (priority 2002, published 2004)

Tested on: HCT116 cells
Assay: 3H-thymidine incorporation (proliferation) assay in HCT116 cells after siRNA treatment against RabGGT subunits
Type: cell-based, human
Design: concentration or dose not given beside the values
Conditions: 72 hours after siRNA/Lipofectamine 2000 treatment, average of three replicates
Procedure: HCT-116 human colon tumor cells obtained from the ATCC were grown in RPMI culture medium supplemented with 10% heat inactivated FBS, 1× penicillin/streptomycin, and 25 mM HEPES, in an incubator maintained at 37° C. with CO2 at 6% and humidity at 95%. HCT116 cells were plated in 96 well plates at 2000 cells/100 μl media per well and incubated for 24 hours before RNAi treatment. For treatment, a 2× solution of Lipofectamine 2000/siRNA complexes was generated for each individual siRNA as follows. The siRNA oligonucleotides (Xeragon; Huntsville Ala.) were diluted to a final concentration of 1 μM in Optimem serum-free media (Invitrogen; Carlsbad, Calif.) and incubated for 5 minutes at room temperature. The Lipofectamine 2000 reagent (Invitrogen; Carlsbad, Calif.) was diluted to 10 μg/ml in Optimem serum-free media and incubated for 5 minutes at room temperature. Equal volumes of the 1 μM siRNA oligonucleotides and the 10 μg/ml Lipofectamine 2000 were mixed together, giving a 5× stock of siRNA/Lipofectamine 2000 complexes. After incubation for 20 minutes at room temperature, 1.5 volumes of RPMI medium containing 10% heat inactivated FBS was added to the 5× stock, resulting in a 2× stock of siRNA/Lipofectamine 2000 complexes. For RNAi treatment, 100 μof the 2× stock of siRNA/Lipofectamine 2000 complexes was added to each well containing HCT116 cells, to give a final concentration of 1× siRNA/Lipofectamine 2000 complexes. Cells were incubated for 72 hours prior to the proliferation assay. Three replicates were performed for each siRNA treatment.
The effect of RNAi treatment directed against RabGGT subunits on cellular proliferation was assayed using a 3H-thymidine incorporation assay. The principle of this assay is as follows: During S-phase of the cell cycle, cells incorporate thymidine into the new strand of genomic DNA. Tritiated thymidine can be added to the culture medium and will be incorporated into genomic DNA in proportion to the number of rounds of DNA synthesis that occur. Incorporation can be quantified following lysis of the cells and removal of unincorporated nucleotides. RNAi-treated cells prepared as described above were assayed for 3H-thymidine uptake as follows. The cells were pulsed with 3H-thymidine by addition of 20 μl of a 44 μCi/ml solution of 3H-thymidine in RPMI to each well, to obtain a final concentration of 3H-thymidine of 4 μCi/ml. After incubation for 3 h at 37° C., the medium was removed and 50 μl of 0.25% trypsin in phosphate buffered saline (140 mM NaCl, 2.7 mM KCl, 10 mM Na2HPO4 and 1.8 mM KH2PO4, pH 7.4) was added. After 10 minutes, the contents of the wells were harvested onto a 96-well GF/C filter plate (Whatman; Clifton N.J.) using a Hewlett Packard Filtermate. The filter plate was washed 10 times with distilled water, then left to dry overnight. After the addition of 50 μl of Microscint-20 scintillation fluid (Perkin Elmer; Boston, Mass.) per well, the filter plates were sealed and the amount of radioactivity retained on the filter was determined by scintillation counting. The average of the three replicate samples is reported.

Row | Substance | 3H-thy incorp. % of control
1 | Alpha-2: siRNA against human RabGGT-alpha, coding bases 628-651, SEQ ID NO:03 / NO:04 (chain 1 AGAGCUGGAGCUGGUGCAGTT; chain 2 CUGCACCAGCUCCAGCUCUTT; chemistry not given here) | 17%
2 | Alpha-1: siRNA against human RabGGT-alpha, coding bases 268-291, SEQ ID NO:01 / NO:02 (chain 1 GGCAGAACUGGGCUUCCUGTT; chain 2 CAGGAAGCCCAGUUCUGCCTT; chemistry not given here) | 33%
3 | Beta-2: siRNA against human RabGGT-beta, coding bases 662-685, SEQ ID NO:09 / NO:10 (chain 1 CGACAAUUACCCUCAGGCGTT; chain 2 CGCCUGAGGGUAAUUGUCGTT; chemistry not given here) | 39%
4 | Alpha-3: siRNA against human RabGGT-alpha, coding bases 1309-1332, SEQ ID NO:05 / NO:06 (chain 1 GAUGGAGUAUGCCGAGGUGTT; chain 2 CACCUCGGCAUACUCCAUCTT; chemistry not given here) | 63%
5 | Beta-1: siRNA against human RabGGT-beta, coding bases 493-516, SEQ ID NO:07 / NO:08 (chain 1 CUUUGGCUUUGUUGGGGAATT; chain 2 UUCCCCAACAAAGCCAAAGTT; chemistry not given here) | 77%
6 | Beta-3: siRNA against human RabGGT-beta, coding bases 812-835, SEQ ID NO:11 / NO:12 (chain 1 GAUGAAGAAACGGGGGGAUTT; chain 2 AUCCCCCCGUUUCUUCAUCTT; chemistry not given here) | 36%
